Test results as given in US12187681B2 (Shanghai East Hospital, priority 2019, dated 2025).
Counter-ions that a name gives are not always drawn.

Legend:
Format in all cases: cell-based
[1] = target: T1, Iks potassium channel (KCNQ1/KCNE1) (Homo sapiens, UniProt P51787); test: Iks channel whole-cell patch clamp (Ion Channel Activity Measurement); conditions: human, CHO cells stably expressing Iks channel (KCNQ1 and KCNE1), room temperature; for inhibition at 5 min, 1 μM: pH 7.4, 1 μM test article; for inhibition at 5 min, 10 μM: pH 7.4, 10 μM test article
T1 construct: expressed in transfected cells; host or cells: CHO
Description: CHO cell line stably expressing Iks potassium voltage-gated channel subfamily Q member 1(KCNQ1) and potassium voltage-gated channel subfamily E regulatory subunit 1 (KCNE1), cDNA strictly similar to GenBank accession number: NM_000218 and NM_000219
Cells expressing channels were cultured in medium supplemented with 20% FBS in HAM'S F12 culture dish. Cells grew in a humidified incubator at 37° C. under 5% carbon dioxide. To passage cells, remove poor medium and rinse the cells once with PBS 1X. […] Place plate on a 37° C. warming incubator 5 min. As soon as cells are detached, add 5 ml of 37° C. complete medium. Draw cell suspension into a sterile pipet and homogenize cells gently to dissociate cells aggregates. Amplify or maintain the cells by seeding 2.5*105 cells in a 6 cm dish (final volume: 5 ml). To maintain electrophysiological performances, cell density must not exceed 80%. On the day before patch clamp experiment, 3*103 cells were seeded on coverslips in the 24-well plate and incubated at 37° C. in 5% carbon dioxide.
Extracellular solution (mM): 140 NaCl, 2.5 KCl, 1 MgCl2, 2 CaCl2, 5 Glucose, 10 HEPES, pH=7.4 with NaOH.
Pipette solution (mM): 120 K-aspartic, 10 HEPES, 5 MgCl2, 5 EGTA, 4 Na2-ATP 0.3 Na2-GTP, 14 mM Phosphocreatine disodium salt, 20 u/mL Creatine phosphor kinse pH 7.2 with KOH
Glass pipette (BF150-86-10, Sutter Instruments) was made by puller (P97, Sutter Instruments). The glass pipette was manipulated using Micro-manipulator (Carm-C-S, MCI Instruments) under the microscope (AE31EF-INV, Motic). After touching the cell, a slight suction was applied to achieve high seal (GΩ). Fast capacitance (in pF) compensation was made after high seal was achieved; after achieving high seal, the membrane was broken, Cell capacitance (in pF) compensation was made from whole-cell capacitance compensation after the whole cell mode was achieved. No leak subtraction was made.
Cell was incubated with the test article for 5 minutes, or until the current reached a steady-state level. Multiple concentrations of test article were tested. The test articles were applied gradually from low to high concentration. The test and control solutions were flown into a recording chamber mounted on the stage of an inverted microscope via a gravity-fed solution delivery system. During the experiment, solutions were withdrawn from the recording chamber by vacuum aspiration. Each concentration was tested at multiple times. Each cell acted as its own control. All tests were performed at room temperature (23-25° C.).
IKs current was measured using a pulse protocol consisting of −80 mV holding potential increment up to +60 mV over a period of 5 seconds. And then quickly repolarizedat −40 mV and maintained for 4 seconds.

[2] = target: T2, hERG (human ether-a-go-go related gene potassium channel, KCNH2) (Homo sapiens, UniProt Q12809); test: hERG channel whole-cell patch clamp (Ion Channel Activity Measurement); conditions: human, HEK293 cells expressing the human ERG potassium channel, room temperature; for inhibition at 1 μM: pH 7.4, 1 μM test article; for inhibition at 10 μM: pH 7.4, 10 μM test article
T2 construct: expressed in transfected cells; host or cells: HEK293
Summary of the method: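 HEK293 cells stably expressing hERG (NM_000238) were recorded by whole-cell patch clamp at 23-25° C. Holding potential −80 mV, step to 30 mV for 2.5 s, tail currents at −50 mV for 4 s, pulses every 10 s. Each concentration was perfused low to high for 5 min or to steady state, with each cell as its own control.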

[3] = target: T3, CaV1.2 (L-type voltage-dependent calcium channel; CACNA1C, CACNB2, CACNA2D1) (Homo sapiens, UniProt Q13936); test: CaV1.2 channel whole-cell patch clamp (Ion Channel Activity Measurement); conditions: human, room temperature; for inhibition at 5 min, 1 μM: pH 7.4, 1 μM test article; for inhibition at 5 min, 10 μM: pH 7.4, 10 μM test article, read-out: CaV 1.2 10 μM (ion-channel inhibition)
T3 construct: expressed in transfected cells; host or cells: CHO
Summary of the method: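 Whole-cell patch clamp was run on CHO cells stably expressing CACNA1C/CACNB2/CACNA2D1 at 23–25 °C, with 10 mM CaCl2 TEA bath (pH 7.4) and CsCl pipette solution (pH 7.2). Currents were evoked from −80 mV to +10 mV for 0.3 s every 20 s without leak subtraction. Ascending concentrations were each applied for 5 min or until steady state.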

T2 sequence (Q12809 whole entry): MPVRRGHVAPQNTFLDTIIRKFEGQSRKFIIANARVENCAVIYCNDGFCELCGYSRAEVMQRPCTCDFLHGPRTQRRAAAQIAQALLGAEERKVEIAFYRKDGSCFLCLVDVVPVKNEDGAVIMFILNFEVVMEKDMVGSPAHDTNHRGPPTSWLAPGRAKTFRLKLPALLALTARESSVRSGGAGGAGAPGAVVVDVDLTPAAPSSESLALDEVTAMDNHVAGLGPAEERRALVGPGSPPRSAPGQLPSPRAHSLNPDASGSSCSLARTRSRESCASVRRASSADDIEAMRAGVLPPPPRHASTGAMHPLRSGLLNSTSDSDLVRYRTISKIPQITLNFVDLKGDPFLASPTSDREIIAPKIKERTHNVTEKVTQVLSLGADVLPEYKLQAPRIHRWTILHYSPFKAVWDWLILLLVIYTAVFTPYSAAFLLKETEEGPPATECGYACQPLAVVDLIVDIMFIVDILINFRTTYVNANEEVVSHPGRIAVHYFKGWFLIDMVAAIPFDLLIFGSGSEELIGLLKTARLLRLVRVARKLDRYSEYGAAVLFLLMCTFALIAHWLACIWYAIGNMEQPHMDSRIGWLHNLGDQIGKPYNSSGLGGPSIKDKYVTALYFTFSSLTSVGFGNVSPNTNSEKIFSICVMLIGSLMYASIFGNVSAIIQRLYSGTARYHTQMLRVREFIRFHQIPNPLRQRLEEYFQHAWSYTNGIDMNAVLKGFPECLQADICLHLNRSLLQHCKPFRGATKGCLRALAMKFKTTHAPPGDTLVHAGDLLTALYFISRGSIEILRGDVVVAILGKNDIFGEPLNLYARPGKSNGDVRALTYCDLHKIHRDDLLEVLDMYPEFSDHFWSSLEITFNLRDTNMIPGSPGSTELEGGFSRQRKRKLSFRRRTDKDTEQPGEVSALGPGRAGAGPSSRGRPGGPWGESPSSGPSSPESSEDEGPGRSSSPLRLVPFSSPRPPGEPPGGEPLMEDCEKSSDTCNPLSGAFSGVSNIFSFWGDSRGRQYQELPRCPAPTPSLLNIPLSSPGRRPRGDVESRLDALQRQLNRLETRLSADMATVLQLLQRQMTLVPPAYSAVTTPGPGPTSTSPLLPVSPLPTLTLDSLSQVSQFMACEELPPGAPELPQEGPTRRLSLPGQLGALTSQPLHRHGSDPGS
T3 sequence (Q13936 1-2138 isoform Q13936-12): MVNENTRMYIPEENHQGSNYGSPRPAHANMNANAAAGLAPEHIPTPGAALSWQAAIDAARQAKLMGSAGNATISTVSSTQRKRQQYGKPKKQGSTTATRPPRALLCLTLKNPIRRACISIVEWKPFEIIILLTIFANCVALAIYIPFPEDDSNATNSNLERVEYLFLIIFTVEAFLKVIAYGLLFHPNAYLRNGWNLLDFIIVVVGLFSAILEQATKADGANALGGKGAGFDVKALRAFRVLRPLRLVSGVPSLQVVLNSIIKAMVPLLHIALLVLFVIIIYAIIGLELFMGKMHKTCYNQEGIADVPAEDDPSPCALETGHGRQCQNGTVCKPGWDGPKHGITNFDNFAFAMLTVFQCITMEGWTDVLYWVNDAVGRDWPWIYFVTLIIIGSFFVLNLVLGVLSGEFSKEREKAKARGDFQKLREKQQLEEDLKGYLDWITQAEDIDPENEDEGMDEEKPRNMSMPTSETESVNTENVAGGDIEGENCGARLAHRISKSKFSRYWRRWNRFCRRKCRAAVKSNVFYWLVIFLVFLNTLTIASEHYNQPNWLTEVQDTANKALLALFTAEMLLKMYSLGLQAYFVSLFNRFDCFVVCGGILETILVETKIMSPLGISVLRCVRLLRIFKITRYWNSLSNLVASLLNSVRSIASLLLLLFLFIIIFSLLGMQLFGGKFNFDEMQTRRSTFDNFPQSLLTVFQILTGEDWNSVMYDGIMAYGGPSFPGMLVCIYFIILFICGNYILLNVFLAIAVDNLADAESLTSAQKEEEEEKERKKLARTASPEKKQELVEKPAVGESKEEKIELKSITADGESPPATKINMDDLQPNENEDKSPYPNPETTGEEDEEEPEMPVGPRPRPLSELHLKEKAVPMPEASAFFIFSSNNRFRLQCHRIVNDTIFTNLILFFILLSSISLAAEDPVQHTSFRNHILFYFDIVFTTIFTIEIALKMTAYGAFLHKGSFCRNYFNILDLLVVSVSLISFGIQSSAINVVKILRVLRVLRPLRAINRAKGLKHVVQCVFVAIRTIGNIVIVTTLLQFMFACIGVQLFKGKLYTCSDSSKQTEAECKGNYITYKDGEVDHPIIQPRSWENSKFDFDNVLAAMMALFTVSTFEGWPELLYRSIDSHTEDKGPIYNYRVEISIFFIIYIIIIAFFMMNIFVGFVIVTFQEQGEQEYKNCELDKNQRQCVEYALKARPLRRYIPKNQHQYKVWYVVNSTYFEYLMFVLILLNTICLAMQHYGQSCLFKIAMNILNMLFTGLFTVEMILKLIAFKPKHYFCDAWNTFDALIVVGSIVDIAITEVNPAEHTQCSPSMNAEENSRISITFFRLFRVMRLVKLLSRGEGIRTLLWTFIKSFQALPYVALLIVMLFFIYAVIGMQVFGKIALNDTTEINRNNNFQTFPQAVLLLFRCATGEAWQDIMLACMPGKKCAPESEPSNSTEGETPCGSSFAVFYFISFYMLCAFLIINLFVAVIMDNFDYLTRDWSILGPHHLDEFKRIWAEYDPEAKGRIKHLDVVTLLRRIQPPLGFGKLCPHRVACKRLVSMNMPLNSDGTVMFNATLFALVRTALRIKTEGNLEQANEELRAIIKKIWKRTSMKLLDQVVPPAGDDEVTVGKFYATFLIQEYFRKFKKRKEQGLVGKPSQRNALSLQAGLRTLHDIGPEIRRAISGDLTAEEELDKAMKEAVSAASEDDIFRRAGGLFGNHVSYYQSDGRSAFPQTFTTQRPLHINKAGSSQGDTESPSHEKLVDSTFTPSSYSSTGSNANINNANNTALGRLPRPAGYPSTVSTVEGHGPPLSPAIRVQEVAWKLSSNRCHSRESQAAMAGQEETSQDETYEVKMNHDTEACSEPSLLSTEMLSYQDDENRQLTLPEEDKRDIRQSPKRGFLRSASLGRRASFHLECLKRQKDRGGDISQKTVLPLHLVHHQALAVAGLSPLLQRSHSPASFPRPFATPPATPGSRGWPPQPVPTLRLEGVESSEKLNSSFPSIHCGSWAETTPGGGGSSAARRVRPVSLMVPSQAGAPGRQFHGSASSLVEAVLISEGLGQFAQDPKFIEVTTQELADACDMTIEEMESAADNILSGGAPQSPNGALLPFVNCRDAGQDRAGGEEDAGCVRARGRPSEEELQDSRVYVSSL
T3 sequence (Q08289 1-605 isoform Q08289-2 partner): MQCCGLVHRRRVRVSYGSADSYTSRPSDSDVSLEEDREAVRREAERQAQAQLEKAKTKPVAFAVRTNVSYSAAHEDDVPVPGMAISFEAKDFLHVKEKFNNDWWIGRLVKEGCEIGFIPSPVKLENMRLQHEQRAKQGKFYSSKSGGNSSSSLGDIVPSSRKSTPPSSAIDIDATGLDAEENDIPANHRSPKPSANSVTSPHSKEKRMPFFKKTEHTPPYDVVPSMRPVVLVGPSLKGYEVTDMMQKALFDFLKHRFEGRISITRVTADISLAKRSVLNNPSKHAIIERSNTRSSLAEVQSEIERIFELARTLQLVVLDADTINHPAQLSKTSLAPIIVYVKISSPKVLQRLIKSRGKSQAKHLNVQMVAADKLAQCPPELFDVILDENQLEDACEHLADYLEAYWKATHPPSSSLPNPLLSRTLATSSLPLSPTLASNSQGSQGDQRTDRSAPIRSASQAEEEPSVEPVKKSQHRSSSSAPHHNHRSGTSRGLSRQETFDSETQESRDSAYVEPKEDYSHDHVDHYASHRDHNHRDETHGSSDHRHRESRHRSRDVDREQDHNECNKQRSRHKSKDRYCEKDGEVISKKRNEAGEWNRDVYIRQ
T3 sequence (P54289 25-1091 isoform P54289-2 partner limits assumed): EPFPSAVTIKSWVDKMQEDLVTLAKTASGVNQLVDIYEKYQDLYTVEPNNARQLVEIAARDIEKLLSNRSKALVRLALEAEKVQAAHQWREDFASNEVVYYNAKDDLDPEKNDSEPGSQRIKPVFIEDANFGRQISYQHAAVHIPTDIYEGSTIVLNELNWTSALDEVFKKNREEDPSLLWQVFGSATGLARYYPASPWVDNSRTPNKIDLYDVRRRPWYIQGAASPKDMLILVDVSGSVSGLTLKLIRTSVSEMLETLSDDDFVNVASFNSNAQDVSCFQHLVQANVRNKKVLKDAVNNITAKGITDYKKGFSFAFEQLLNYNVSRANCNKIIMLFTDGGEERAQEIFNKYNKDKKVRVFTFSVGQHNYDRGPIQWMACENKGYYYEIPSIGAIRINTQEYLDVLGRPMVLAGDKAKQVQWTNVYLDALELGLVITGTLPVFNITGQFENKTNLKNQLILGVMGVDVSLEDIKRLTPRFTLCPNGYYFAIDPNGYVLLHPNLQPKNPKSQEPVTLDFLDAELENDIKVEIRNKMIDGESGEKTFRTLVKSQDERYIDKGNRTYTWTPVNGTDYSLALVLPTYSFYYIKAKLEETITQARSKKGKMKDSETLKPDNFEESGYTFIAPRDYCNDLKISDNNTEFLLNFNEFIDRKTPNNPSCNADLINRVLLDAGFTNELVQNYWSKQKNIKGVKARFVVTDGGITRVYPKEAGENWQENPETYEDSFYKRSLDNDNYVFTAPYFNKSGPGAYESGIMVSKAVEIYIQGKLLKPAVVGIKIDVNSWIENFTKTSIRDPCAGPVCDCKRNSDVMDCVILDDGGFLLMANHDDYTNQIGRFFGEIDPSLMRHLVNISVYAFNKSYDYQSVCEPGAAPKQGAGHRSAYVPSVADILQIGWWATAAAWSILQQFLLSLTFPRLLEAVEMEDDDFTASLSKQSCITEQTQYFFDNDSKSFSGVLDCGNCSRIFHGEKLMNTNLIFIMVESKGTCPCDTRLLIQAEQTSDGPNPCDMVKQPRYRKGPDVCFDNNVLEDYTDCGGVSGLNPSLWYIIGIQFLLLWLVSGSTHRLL
T3 sequence (P54289 957-1103 partner limits assumed): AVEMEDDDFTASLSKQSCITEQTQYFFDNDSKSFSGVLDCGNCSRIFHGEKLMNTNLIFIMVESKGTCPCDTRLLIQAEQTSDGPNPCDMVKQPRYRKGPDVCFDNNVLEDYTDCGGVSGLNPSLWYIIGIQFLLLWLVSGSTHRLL

Row | Compound | inhibition at 5 min, 1 μM [1] | inhibition at 5 min, 10 μM [1] | inhibition at 1 μM [2] | inhibition at 5 min, 1 μM [3] | inhibition at 5 min, 10 μM [3] | inhibition at 10 μM [2]
1 | Oc1ccc2ccccc2c1Cc1c(OCCN2CCCC2)ccc2ccccc12 [Compound A129, 1-((2-(2-(pyrrolidin-1-yl)ethoxy)naphthalen-1-yl)methyl)naphthalen-2-ol] | 25 to 50% | 75 to 100% | 75 to 100% | 25 to 50% | 75 to 100% | –
2 | COc1ccc2ccccc2c1C(O)c1c(OC)ccc2ccccc12 [Compound A040, bis(2-methoxynaphthalen-1-yl)methanol] | < 25% | 25 to 50% | – | – | – | –
3 | O=S(=O)(c1c(O)ccc2ccccc12)c1c(O)ccc2ccccc12 [Compound A005, 1,1′-sulfonylbis(naphthalen-2-ol)] | 25 to 50% | 25 to 50% | – | – | – | –
4 | Cc1cc2ccccc2c(Cc2c(O)ccc3ccccc23)c1O [Compound A031, 1-((2-hydroxynaphthalen-1-yl)methyl)-3-methylnaphthalen-2-ol] | < 25% | 50 to 75% | < 25% | < 25% | 25 to 50% | 50 to 75%
5 | COc1ccc2ccccc2c1Cc1c(OC)ccc2ccccc12 [Compound A015, bis(2-methoxynaphthalen-1-yl)methane] | < 25% | < 25% | – | – | – | –
6 | Oc1ccc2ccccc2c1Cc1c(O)ccc2ccccc12 [Compound A001, 1,1′-methylenebis(naphthalen-2-ol)] | 50 to 75% | 75 to 100% | < 25% | < 25% | 75 to 100% | 75 to 100%
7 | CC[N+](C)(CC)CCOc1ccc2ccccc2c1Sc1c(OC)ccc2ccccc12 [Compound A191, diethyl(2-((1-((2-methoxynaphthalen-1-yl)thio)naphthalen-2-yl)oxy)ethyl)(methyl)-14-azane, iodide salt] | < 25% | – | 75 to 100% | 25 to 50% | 75 to 100% | 75 to 100%
8 | Oc1ccccc1Cc1ccccc1O [Compound A016, 2,2′-methylenediphenol] | < 25% | < 25% | – | – | – | –
9 | CN(c1c(O)ccc2ccccc12)c1c(O)ccc2ccccc12 [Compound A003, 1,1′-(methylazanediyl)bis(naphthalen-2-ol)] | 25 to 50% | 50 to 75% | 25 to 50% | < 25% | 25 to 50% | 75 to 100%
10 | Oc1ccc2ccccc2c1Cc1cccc2ccccc12 [Compound A052, 1-(naphthalen-1-ylmethyl)naphthalen-2-ol] | 25 to 50% | – | < 25% | < 25% | 75 to 100% | 75 to 100%
11 | COc1ccc2ccccc2c1Cc1c(OCC[N+]2(C)CCOCC2)ccc2ccccc12 [Compound A130-2, 4-(2-((1-((2-methoxynaphthalen-1-yl)methyl)naphthalen-2-yl)oxy)ethyl)-4-methylmorpholin-4-ium formate] | < 25% | 25 to 50% | 75 to 100% | 50 to 75% | 75 to 100% | –
12 | Oc1c(F)cc2ccccc2c1Cc1c(O)c(F)cc2ccccc12 [Compound A049, 1,1′-methylenebis(3-fluoronaphthalen-2-ol)] | – | – | < 25% | < 25% | 50 to 75% | 50 to 75%
13 | CCOCOc1cccc2c1C(=O)CCC2 [Compound A076, 8-(ethoxymethoxy)-3,4-dihydronaphthalen-1(2H)-one] | – | – | < 25% | < 25% | 25 to 50% | 50 to 75%
14 | COc1ccc2ccccc2c1Cc1c(OCC[N+]2(C)CCCC2)ccc2ccccc12 [Compound A129-2, 1-(2-((1-((2-methoxynaphthalen-1-yl)methyl)naphthalen-2-yl)oxy)ethyl)-1-methylpyrrolidin-1-ium formate] | – | – | 25 to 50% | 25 to 50% | 75 to 100% | –
15 | Oc1ccc2ccccc2c1Cc1c(O)ccc2ccncc12 [Compound A109, 8-((2-hydroxynaphthalen-1-yl)methyl)isoquinolin-7-ol] | – | – | < 25% | 25 to 50% | 50 to 75% | 75 to 100%
16 | Cc1cc2ccccc2c(O)c1Cc1c(C)cc2ccccc2c1O [Compound A035, 2,2′-methylenebis(3-methylnaphthalen-1-ol)] | – | – | < 25% | < 25% | 75 to 100% | 50 to 75%
17 | COCCOc1ccc2ccccc2c1Cc1c(OCCN2CCCC2)ccc2ccccc12 [Compound A258, 1-(2-((1-((2-(2-methoxyethoxy)naphthalen-1-yl)methyl)naphthalen-2-yl)oxy)ethyl)pyrrolidine] | – | – | 75 to 100% | < 25% | 75 to 100% | 75 to 100%
18 | Cc1cc2ccccc2c(Cc2c(O)c(C)cc3ccccc23)c1O [Compound A032, 1,1′-methylenebis(3-methylnaphthalen-2-ol)] | – | – | < 25% | < 25% | < 25% | < 25%
19 | CS(=O)(=O)Nc1cc(Cc2c(NS(C)(=O)=O)ccc3ccccc23)c2ccccc2c1 [Compound A024-2, N-(1-((3-(methylsulfonamido)naphthalen-1-yl)methyl)naphthalen-2-yl)methanesulfonamide] | – | – | < 25% | < 25% | 25 to 50% | 50 to 75%
20 | Oc1cccc2c1C(c1c(O)ccc3c1CCCC3)CCC2 (stereo not drawn) [Compound A077-2, 1′,2′,3′,4′,5,6,7,8-octahydro-[1,1′-binaphthalene]-2,8′-diol] | – | – | < 25% | < 25% | < 25% | 50 to 75%
21 | NC(=O)c1ccc2c(Cc3c(O)ccc4cc(C(N)=O)ccc34)c(O)ccc2c1 [Compound A123, 5,5′-methylenebis(6-hydroxy-2-naphthamide)] | – | – | < 25% | < 25% | < 25% | 25 to 50%
22 | Oc1cccc2c1C(c1c(O)ccc3ccccc13)=CC2 [Compound A078, 1-(4-hydroxy-1H-inden-3-yl)naphthalen-2-ol] | – | – | < 25% | < 25% | < 25% | < 25%
23 | Oc1cccc(-c2cccnc2)c1Cc1c(O)cccc1-c1cccnc1 [Compound A117, 2,2′-methylenebis(3-(pyridin-3-yl)phenol)] | – | – | < 25% | < 25% | 25 to 50% | < 25%
24 | CCN(CC)CCOc1ccc2cc(C(=O)O)ccc2c1Cc1c(O)ccc2cc(C(=O)O)ccc12 [Compound A125, 5-((6-carboxy-2-(2-(diethylamino)ethoxy)naphthalen-1-yl)methyl)-6-hydroxy-2-naphthoic acid] | – | – | < 25% | < 25% | 75 to 100% | –
